Data: patent US4036957A, “Phenoxy compounds in combinations to suppress gastric bleeding in aspirin therapy” (priority 1975, dated 1977)
Like-named read-outs stand apart in the source and are kept apart here.

How the values were obtained:
[1] = system: aspirin-induced gastric bleeding; assay: Aspirin-induced gastric bleeding in Cr51 labeled Heidenhain pouch dogs, oral; type: in vivo; conditions: dog; for Mucosal Blood Loss, HCl + Aspirin / Mucosal Blood Loss, HCl: ± S.E.; for Mucosal Blood Loss, HCl: without aspirin; for % Change from Control (mucosal blood loss): P >0.05
Procedure: Methocarbamol (Compound 3) and Metaxalone (Compound 15) were evaluated for their effectiveness upon oral administration against aspirin-induced gastric bleeding in dogs. Three female chronic Heindehain pouch dogs were used. Red blood cells from each dog were labeled with Cr^51. The dogs were fasted 24 hours prior to any study and three days elapsed between studies. On experimental days each fundic pouch was rinsed with tepid tap water and then filled with 10 ml. of normal saline. After 30 minutes the saline was replaced with 10 ml. of artificial gastric juice (USP, pH 1.3). The dogs were given Compound 3 (200 mg/kg) or Compound 15 (50 and 100 mg/kg) or placebo (starch) orally in gelatin capsules. The 10 ml. of gastric juice was removed from the pouch after 60 minutes and replaced with another 10 ml. of juice containing 100 mg. of aspirin (80 mesh). This was likewise removed after 60 minutes. All samples collected from the pouches were counted for radio-activity using a deep-well counter. From the amount of radio-activity present in the gastric samples, the loss of blood into the pouch was determined. The results are shown in Table 3 and show the effectiveness of orally administering Compounds 3 and 15 in preventing aspirin-induced gastric bleeding.

[2] = system: aspirin-induced gastric bleeding; assay: Prevention of aspirin-induced gastric bleeding in pyloric-ligated rats, i.p. test compound (Examples 1-22); type: in vivo, Female Sprague-Dawley rats; conditions: rat; for change in vivo at 50 mg/kg: 50 mg/kg i.p.
Procedure: The prevention of aspirin-induced bleeding in rats was determined by the following procedure. Female Sprague-Dawley rats weighing 150-180 g. were fasted for 24 hours on wire and divided into groups of six animals each. The rats were anesthetized and a ligature placed at the pyloric-duodenal junction. Groups serving as controls received normal saline (4.0 ml/kg, i.p.). […] Some of the compounds were tested at 50 mg/kg, i.p. The rats were sacrificed 60 min. after aspirin administration by cervical dislocation. The volume of the gastric contents was determined and compared against that produced with the same amount of aspirin for change in volume. […] (Gradation between 0 to 40 is on an even scale).

[3] = system: Carrageenan pleural effusion; assay: Evans Blue-Carrageenan Pleural Effusion Test; type: in vivo, rats; conditions: rat, metaxalone 100 mg/kg 30 min before aspirin 150 mg/kg p.o. and again 2 hrs after Carrageenan
Description: The effect of metaxalone (Compound 15) on the anti-inflammatory activity of aspirin in rats was studied using a modification of the Evans Blue-Carrageenan Pleural Effusion Test [Sancilio, L. F., Journal of Pharmacology and Experimental Therapeutics 168, 199-204 (1969)].

[4] = system: aspirin-induced gastric bleeding; type: in vivo, cats; conditions: cat
Procedure: Fasted cats weighing […] were anesthetized with phenobarbital sodium (130 mg/kg, i.p.). Glyceryl guaiacolate was administered intravenously for a total of 2 hrs. beginning 60 min. prior to the topical application of the aspirin (10 mg) to the gastric mucosa. Throughout the experiment, artificial gastric juice (USP, pH 1.3) bathed the mucosa by means of the specially designed chamber. The number of bleeding sites occurring at various exposure sites were recorded at 15, 30 and 60 min. Glyceryl guaiacolate was given at doses of 10 and 30 mg/kg/hr via a previously cannulated jugular vein using an infusion pump (Harvard Apparatus Co., Model 1202). […] An important point is that with 30 mg/kg/hr, i.v., of glyercyl guaiacolate there was no bleeding at 30 min. compared with an average of 14 bleeding sites when no glyceryl guaiacolate was adminsitered. A total of 23 cats were used and there was a minimum of 24 aspirin exposure sites for each dose of glyceryl guaiacolate.

aspirin-induced bleeding = conditions: rat; for Gastric Bleeding Index / Percent Decrease In Mucosal Hemorrhage vs. Control / Total Hemoglobin Loss / Volume Gastric Secretion: aspirin ca 375 p.o.
Procedure: The effect of glyceryl guaiacolate (Compound 8) on aspirin-induced bleeding in rats was studied using the following procedure. Female Sprague-Dawley rats, weighing 140-160 g. and fasted for 24 hrs. on wire were divided into groups of 10 animals each. All animals were anesthetized with Metofane® and a ligature placed at the pyloric-duodenal junction. Groups serving as controls received normal saline (4.0 ml/kg, i.p.). Some groups received normal saline and in addition were given aspirin (375 mg/kg, p.o.) in artificial gastric juice; the remaining groups received aspirin in the same amount and also glyceryl guaiacolate 30 min. prior to the aspirin. The aspirin was administered in artificial gastric juice (USP, […]) in a total volume of 2 ml. to each rat. Following a recovery period of 1 hr. the animals received saline, aspirin and glyceryl guaiacolate in the amounts and by the routes indicated. In most of the experiments, 90 min. following aspirin the rats were sacrificed by cervical dislocation. The stomachs were removed and gastric contents collected for further analysis. […] Hemoglobin loss produced by the aspirin was determined by the colorimetric method of Bing and Baker (J. Biol. Chem. 92: 589, 1931). The condition of the gastric mucosa was also assessed by determining the incidence and severity of damage using the scoring system described hereinabove to obtain the "Gastric Bleeding Index".
Following the procedure of Example 26, methocarbamol (Compound 3 ) was tested further in rats via intraperitoneal and intraduodenal administration.

[5] = ip, 1 h, aspirin 375 mg/kg p.o., read-out: Percent Decrease in Mucosal Bleeding vs Control
[6] = ip, 1 h, 100 mg/kg i.p., aspirin 375 mg/kg p.o., read-out: Percent Decrease in Mucosal Bleeding vs Control
[7] = score 0 to 40, 100 mg/kg i.p. (column head states no dose), aspirin 375 mg/kg p.o.
[8] = 50 mg/kg i.p., Series 2, ± S.E.
[9] = 50 mg/kg oral, Series 3, ± S.E.
[10] = 100 mg/kg i.p., Series 1, ± S.E., P <0.05
[11] = 100 mg/kg i.p., Series 1, P <0.05
[12] = 100 mg/kg intraduodenal, ± S.E., P <0.05
[13] = 100 mg/kg intraduodenal, P <0.05
[14] = 100 mg/kg oral, Series 3, ± S.E.
[15] = 200 mg/kg i.p., Series 2, ± S.E., P <0.05
[16] = 200 mg/kg i.p., Series 2, P <0.05
[17] = 200 mg/kg intraduodenal, ± S.E., P <0.05
[18] = 200 mg/kg intraduodenal, P <0.05
[19] = 200 mg/kg oral, Series 3, ± S.E.

Cc1cc(C)cc(OCC2CNC(=O)O2)c1 (centres unmarked) [Compound 15, 5-(3,5-dimethylphenoxymethyl)-2-oxazolidinone]
% Protection ([1]; 50 mg/kg p.o.): 77% | Mucosal Blood Loss, HCl + Aspirin ([1]; 50 mg/kg p.o.): 8.6 ± 3.7 µL | Mucosal Blood Loss, HCl ([1]; 50 mg/kg p.o.): 4.4 ± 2.4 µL | % Change from Control (mucosal blood loss) ([1]; 50 mg/kg p.o.): +95% | % Protection ([1]; 100 mg/kg p.o.): 100% | Mucosal Blood Loss, HCl + Aspirin ([1]; 100 mg/kg p.o.): 12.7 ± 3.5 µL | Mucosal Blood Loss, HCl ([1]; 100 mg/kg p.o.): 13.0 ± 1.5 µL | % Change from Control (mucosal blood loss) ([1]; 100 mg/kg p.o.): -2% | preventing aspirin-induced gastric bleeding (in words) ([1]; oral): effectiveness | change in vivo at 50 mg/kg [2, 5]: -98% | change in vivo at 100 mg/kg [2, 6]: -96% | ED50 ([2]; ip): 19.6 mg/kg | change in vivo at 100 mg/kg ([2]; ip, 100 mg/kg i.p. (column head states no dose), aspirin 375 mg/kg p.o., read-out: Vol. % Decrease in Gastric Secretion): -41.4% | Gastric Bleeding Index ([2]; 12.5 mg/kg i.p.): 27.5 ± 4.2 | Total Hemoglobin Loss ([2]; 12.5 mg/kg i.p.): 19.3 ± 3.4 mg | Vol. Gastric Secretion ([2]; 12.5 mg/kg i.p.): 6.3 ± 0.3 mL | Percent Decrease in Mucosal Hemorrhage vs Control ([2]; 12.5 mg/kg i.p., P >.05): 21% | Gastric Bleeding Index ([2]; 25.0 mg/kg i.p.): 15.0 ± 5.0 | Total Hemoglobin Loss ([2]; 25.0 mg/kg i.p.): 15.3 ± 6.3 mg | Vol. Gastric Secretion ([2]; 25.0 mg/kg i.p.): 5.1 ± 0.3 mL | Percent Decrease in Mucosal Hemorrhage vs Control ([2]; 25.0 mg/kg i.p., P <.025): 57% | Gastric Bleeding Index ([2]; 50.0 mg/kg i.p.): 0.8 ± 0.8 | Total Hemoglobin Loss ([2]; 50.0 mg/kg i.p.): 2.5 ± 1.1 mg | Vol. Gastric Secretion ([2]; 50.0 mg/kg i.p.): 3.6 ± 0.5 mL | Percent Decrease in Mucosal Hemorrhage vs Control ([2]; 50.0 mg/kg i.p., P <.001): 98% | Gastric Bleeding Index ([2]; 100.0 mg/kg i.p.): 3.3 ± 1.7 | Total Hemoglobin Loss ([2]; 100.0 mg/kg i.p.): 2.5 ± 1.4 mg | Vol. Gastric Secretion ([2]; 100.0 mg/kg i.p.): 3.8 ± 0.4 mL | Percent Decrease in Mucosal Hemorrhage vs Control ([2]; 100.0 mg/kg i.p., P <.001): 91% | preventing aspirin-induced gastric bleeding (in words) ([2]; i.p.): very effective | Gastric Bleeding Index [2, 7]: 0.8 | effect on the anti-inflammatory effectiveness of aspirin [3]: no effect

COc1ccccc1OCC(O)CO (centres unmarked) [Compound 8, 3-(2-methoxyphenoxy)-1,2-propanediol]
bleeding at 30 min ([4]; 30 mg/kg/hr i.v., aspirin 10 mg topical): no bleeding | gastric bleeding produced by aspirin with increasing doses ([4]; 10 and 30 mg/kg/hr i.v.): correspondingly reduced | change in vivo at 50 mg/kg [2, 5]: -57% | change in vivo at 100 mg/kg [2, 6]: -40% | Gastric Bleeding Index [2, 7]: 26.1 | effect on pH (gastric) (aspirin-induced bleeding): a similar effect on pH was not observed | volume of gastric secretion (in words) (aspirin-induced bleeding): significant reduction | Gastric Bleeding Index (aspirin-induced bleeding; 50 mg/kg i.p., Series 2): 26.0 ± 2.6 | Percent Decrease In Mucosal Hemorrhage vs. Control (aspirin-induced bleeding; 50 mg/kg i.p., Series 2): 13.3% | Total Hemoglobin Loss (aspirin-induced bleeding; [8]): 26.7 ± 3.1 mg | Volume Gastric Secretion (aspirin-induced bleeding; [8]): 6.4 ± 0.4 mL | Gastric Bleeding Index (aspirin-induced bleeding; 50 mg/kg intraduodenal): 18.0 ± 4.1 | Percent Decrease In Mucosal Hemorrhage vs. Control (aspirin-induced bleeding; 50 mg/kg intraduodenal): 10.0% | Total Hemoglobin Loss (aspirin-induced bleeding; 50 mg/kg intraduodenal, ± S.E.): 12.4 ± 2.3 mg | Volume Gastric Secretion (aspirin-induced bleeding; 50 mg/kg intraduodenal, ± S.E.): 5.0 ± 0.2 mL | Gastric Bleeding Index (aspirin-induced bleeding; 50 mg/kg oral, Series 3): 30.5 ± 2.4 | Percent Decrease In Mucosal Hemorrhage vs. Control (aspirin-induced bleeding; 50 mg/kg oral, Series 3): 14.2% | Total Hemoglobin Loss (aspirin-induced bleeding; [9]): 29.4 ± 3.2 mg | Volume Gastric Secretion (aspirin-induced bleeding; [9]): 8.0 ± 0.3 mL | Total Hemoglobin Loss (aspirin-induced bleeding; [10]): 8.2 ± 2.5 mg | Volume Gastric Secretion (aspirin-induced bleeding; [10]): 4.2 ± 0.4 mL | Gastric Bleeding Index (aspirin-induced bleeding; [11]): 6.5 ± 4.7 | Percent Decrease In Mucosal Hemorrhage vs. Control (aspirin-induced bleeding; [11]): 77% | Total Hemoglobin Loss (aspirin-induced bleeding; [12]): 7.7 ± 1.2 mg | Volume Gastric Secretion (aspirin-induced bleeding; [12]): 3.9 ± 0.2 mL | Gastric Bleeding Index (aspirin-induced bleeding; [13]): 9.5 ± 2.5 | Percent Decrease In Mucosal Hemorrhage vs. Control (aspirin-induced bleeding; [13]): 57.5% | Gastric Bleeding Index (aspirin-induced bleeding; 100 mg/kg oral, Series 3): 21.0 ± 2.7 | Percent Decrease In Mucosal Hemorrhage vs. Control (aspirin-induced bleeding; 100 mg/kg oral, Series 3): 41.5% | Total Hemoglobin Loss (aspirin-induced bleeding; [14]): 26.2 ± 4.6 mg | Volume Gastric Secretion (aspirin-induced bleeding; [14]): 6.5 ± 0.3 mL | Total Hemoglobin Loss (aspirin-induced bleeding; [15]): 14.5 ± 3.9 mg | Volume Gastric Secretion (aspirin-induced bleeding; [15]): 4.1 ± 0.4 mL | Gastric Bleeding Index (aspirin-induced bleeding; [16]): 6.0 ± 2.1 | Percent Decrease In Mucosal Hemorrhage vs. Control (aspirin-induced bleeding; [16]): 80.0% | Total Hemoglobin Loss (aspirin-induced bleeding; [17]): 4.4 ± 1.0 mg | Volume Gastric Secretion (aspirin-induced bleeding; [17]): 3.5 ± 0.3 mL | Gastric Bleeding Index (aspirin-induced bleeding; [18]): 2.0 ± 1.1 | Percent Decrease In Mucosal Hemorrhage vs. Control (aspirin-induced bleeding; [18]): 90.0% | Percent Decrease In Mucosal Hemorrhage vs. Control (aspirin-induced bleeding; 200 mg/kg oral, Series 3): 46.5% | Total Hemoglobin Loss (aspirin-induced bleeding; [19]): 20.2 ± 1.5 mg | Volume Gastric Secretion (aspirin-induced bleeding; [19]): 6.5 ± 0.5 mL | Gastric Bleeding Index (aspirin-induced bleeding; 200 mg/kg oral, Series 3, P <0.05): 19.0 ± 3.9 | loss of blood into the gastric contents (aspirin-induced bleeding; 100 and 200 mg/kg): markedly reduced | aspirin-induced gastric irritation (aspirin-induced bleeding; 100 and 200 mg/kg by any route): markedly reduced
